Assay results: patent publication EP0073394A1, “2-Arylazo-2-imidazolines, acyl derivatives of the same, process for their preparation and the use in the control of ectoparasites and/or endoparasites” (BAYER AG, priority 1981, dated 1983)

System: Boophilus microplus, Biarra-Stamm
Assay: Tick test (Zeckentest): in vitro test for inhibition of egg laying after dipping adult engorged female ticks
Format: in vivo
Conditions: Rhipicephalus microplus, 480 h, resistant Biarra strain, 1 min dip, read after 20 days, read-out: 50 % Hemmung bei einer Wirkstoffkonzentration in ppm a.i. von
From the text: Lösungsmittel: 35 Gewichtsteile Ethylenglykolmonomethylether 35 Gewichtsteile Nonylphenolpolyglykolether
Zwecks Herstellung einer geeigneten Formulierung vermischt man drei Gewichtsteile Wirkstoff mit sieben Teilen des oben angegebenen Lösungsmittel-Emulgator-Gemisches und verdünnt das so erhaltene Emulsionskonzentrat mit Wasser auf die jeweils gewünschte Konzentration.
In diese Wirkstoffzubereitungen werden adulte, vollgesogene Zeckenweibchen der Art Boophilus microplus (resistent) eine Minute lang getaucht. Nach dem Tauchen von je 10 weiblichen Exemplaren überführt man diese in Petrischalen, deren Boden mit einer entsprechend großen Filterscheibe belegt ist.
Nach 20 Tagen wird die Wirksamkeit der Wirkstoffzubereitung bestimmt durch Ermittlung der Hemmung der Eiablage gegenüber unbehandelten Kontrollzecken. Die Wirkung drückt man in Prozent aus, wobei 100 % bedeutet, daß keine Eier mehr abgelegt wurden und 0 % besagt, daß die Zecken Eier in normaler Menge ablegten.
Untersuchter Wirkstoff, geprüfte Konzentrationen, getestete Parasiten und erhaltene Befunde gehen aus der folgenden Tabelle hervor.

IC50: > 5000 µg/mL
SMILES: Cc1cc(Cl)ccc1NC(=S)N(C)C [Chloromethiuron]
